The values that follow come from patent US11590071B2, “Injectable drug delivery implant composition and method of use thereof” (King Abdulaziz University, priority 2021, dated 2023).

Data set [1] can be described thus: In vivo drug release study (plasma DMF by HPLC after SC injection). Details: species or system Albino Wistar rats. The following applies: rats, S.C. On the procedure: In vivo drug release study was also performed. Albino Wistar rats (275-300 g) were used in the study. Sterile polypropylene cages with paddy husk were used for the housing of experimental animals. Standard food pellets were given to the animals with water ad libitum. Uses of experimental animal were approved by the IAEC (JSSCP, S. S. Nagar, Mysore, India Code No: 132/2013) and for all the purpose of animal welfare the CPCSEA guidelines were followed.
The experimental animals were separated into groups of three and each group consisted of three animals. […] For injecting 0.5 mL of injectable gel, a syringe of 1 mL with the needle of 26-gauge was used.
For the In-vivo detection of Dimethyl Fumarate, an aliquot of blood was drawn from retro orbital sinus of each rat at specified blood collection times. 1.5 mL aliquot of blood from retro orbital sinus was collected in an EDTA coated Eppendorf tube. The tubes were centrifuged at 4° C. and 8000 rpm for 10 min to collect plasma. Plasma was separated into a separate eppendorf tube. Until the screening or assay of plasma samples by using HPLC, the sample was stored at −20° C.
All animals remained in good health throughout the acclimatization and study periods. The cumulative (±SD) plasma concentrations of DMF at the times of sample collection after SC are plotted in FIG. 8. Drug concentration was determined by using HPLC method. […]

Data set [2] relates to rat subcutaneous tissue. The experiment in a line: Tissue biocompatibility study of DMF ISFI system (physical inspection for inflammation). Format: in vivo, rats. The note with it: SC injection; visual observation. On the procedure:
Tissue biocompatibility study of DMF ISFI system was performed. Mice were separated into three groups i.e., positive control group, test group, negative control group and each group consist of three animals to assess the DMF and ISFI biocompatibility. All of the three groups received different drugs like first group received phosphate buffer of pH 7.4 dispersed DMF, test group was given both drug DMF with the ISFI and the last group were given only ISFI. For all physical signs of inflammation, all the animals were visually observed. Produces responses in experimental animals were graded as 0 for normal, + for mild symptoms, ++ for moderate and +++ used for the severe symptoms. After injecting the drugs in animals, one mouse per group was sacrificed at the interval of 3rd day, 7th day and 14th days. The adjacent tissues were excised and fixed in 10% formalin tamped with phosphate buffer. The tissue was under the observation of optical microscope after the hematoxylin and eosin staining process for the changes in acute inflammatory responses, fibrosis and foreign body reaction. (Anderson and Langone, 1999 and Park and Park, 1999).

Counter-ions that a name gives are not always drawn.

Consider `COC(=O)/C=C/C(=O)OC` [DMF, Dimethyl fumarate], for which the “plasma concentration (final level)” value in data set [1] (pure drug 1 mg/0.2 mL, group III) is reported as “non-detectable quantities”. Besides, the “time after which plasma concentration falls” value in data set [1] (pure drug 2 mg/0.2 mL, Group I) amounted to 150 h. Besides, the “inflammatory reaction at physical inspection” value in data set [2] is given as “highest inflammation”.
